Like-named read-outs stand apart in the source and are kept apart here.

For assay [1], the target named is H1/Nca HA (biotinylated full length trimeric HA, A/New Caledonia/20/1999) (Influenza A virus, UniProt Q6WG00). In words: AlphaLISA competition assay with HB80.4, H1/NCa HA. The format is binding, influenza A virus H1N1 A/New Caledonia/20/1999. An excerpt:
(§1) Binding competition studies were designed to test compounds of the invention for competition with other well characterized HA binding proteins (such as e.g. CR9114, CR6261 and HB80.4) with known epitopes on HA. The epitopes where either located at the stem of the HA (viral membrane proximal part of HA) or, for control purposes, at the head of HA (viral membrane distal part of HA). If competition was observed, it was assumed that both molecules bind to a similar or at least overlapping epitope at the surface of HA. Competition with a HA head- and stem-binder was interpreted as unspecific binding.
(§2) Hereto an AlphaLISA competition assay (Perkin Elmer) was established which relied on biotinylated full length and trimeric HA proteins (Protein Sciences, 10 μL, 0.5 nM final concentration in 50 μL) bound by HA-specific binders. The interaction between HA and the binder was detected after 1 h incubation at room temperature (RT) with two beads, a streptavidin donor bead recognizing HA (10 μL of 10 μg/mL) and an anti Fc bead (10 μg/mL) recognizing the IgGs used. If after an additional hour of incubation at RT the excited donor bead (680 nm) and acceptor bead are in close proximity, an energy transfer (singlet oxygen) can be measured as a luminescence signal of the acceptor bead (Perkin Elmer EnVision plate reader). The signal intensity in this homogeneous assay format is directly proportional to the binding strength (affinity/avidity) between both binding partners.
Background: Bead proximity is the source of the signal in Alpha formats.

Assay [2] concerns the target H1/Cal HA (biotinylated full length trimeric HA, A/California/07/2009) (Influenza A virus, UniProt C3W5X2). Briefly: AlphaLISA competition assay with HB80.4, H1/Cal HA. The class given is binding, influenza A virus H1N1 A/California/07/2009.
Excerpt: as §1, §2

In assay [3] the test system is influenza virus A/New Caledonia (H1). In words: Virus neutralization assay (VNA) on Calu-3 cells. The format is cell-based, influenza A virus H1N1 A/New Caledonia/20/1999.
Setting [4] is: ALC_H1_NCa_HB80.4 calculated pIC50, AlphaLISA competition with HB80.4 on H1 NCa HA, 0.5 nM HA.
Where [5] appears, read: Calu-3 cells, 5 TCID50/50 μL virus, 4 days, NP ELISA readout.

What is called IC50 is the concentration that inhibits the measured activity by half. In the case of `CSCC[C@@H]1NC(=O)CNC(=O)CNC(=O)[C@H](C)NC(=O)[C@H](C(C)C)NC(=O)CNC(=O)[C@H](CC(C)C)NC(=O)[C@@H]2CCCN2C(=O)[C@H](CC(=O)O)NC(=O)[C@H](CCC(=O)O)NC(=O)[C@H](Cc2ccc(O)cc2)NC(=O)[C@H](CC(C)C)NC(=O)[C@@H](NC(=O)CCC(=O)O)CSSC[C@@H](C(N)=O)NC(=O)CNC1=O` [CP141069, Suc-Cys-Leu-Tyr-Glu-Asp-Pro-Leu-Gly-Val-Ala-Gly-Gly-Met-Gly-Cys-NH2], the figures for the IC50 in assay [1] (setting [4]) and in assay [2] were 0.158 µM and 0.316 µM, respectively. In addition, the “VNA_H1_NCa_Calu3 pIC50” value in assay [3] (setting [5]) came to 6.1.

Regarding `CSCC[C@@H]1NC(=O)CNC(=O)CNC(=O)[C@H](C)NC(=O)[C@H](C(C)C)NC(=O)CNC(=O)[C@H](CC(C)C)NC(=O)[C@@H]2CCCN2C(=O)[C@H](CC(=O)O)NC(=O)[C@H](CCC(=O)O)NC(=O)[C@H](Cc2ccc(O)cc2)NC(=O)[C@H](CC(C)C)NC(=O)[C@@H]2CCCN2C(=O)[C@H]2CCCN2C(=O)CNC1=O` [CP141086, Pro-Leu-Tyr-Glu-Asp-Pro-Leu-Gly-Val-Ala-Gly-Gly-Met-Gly-D-Pro], the results for the concentration for half-maximal inhibition (IC50) in assay [1] (setting [4]) and in assay [2] were 0.2 µM and 1.58 µM, respectively. Further, the “VNA_H1_NCa_Calu3 pIC50” value in assay [3] (setting [5]) is 4.6.

For the molecule `CSCC[C@@H]1NC(=O)CNC(=O)CNC(=O)[C@H](C)NC(=O)[C@H](C(C)C)NC(=O)CNC(=O)[C@H](CC(C)C)NC(=O)[C@@H]2CCCN2C(=O)[C@H](CC(=O)O)NC(=O)[C@H](CCC(=O)O)NC(=O)[C@H](Cc2ccc(O)cc2)NC(=O)[C@H](CC(C)C)NC(=O)CNC(=O)[C@H]2CCCN2C(=O)CNC1=O` [CP141084, Gly-Leu-Tyr-Glu-Asp-Pro-Leu-Gly-Val-Ala-Gly-Gly-Met-Gly-D-Pro], the values for the IC50 in assay [1] (setting [4]) and in assay [2] were 0.398 µM and 0.794 µM, respectively. Also, in assay [3] (setting [5]), the “VNA_H1_NCa_Calu3 pIC50” value worked out at 5.7.

Regarding `CSCC[C@@H]1NC(=O)CNC(=O)CNC(=O)[C@H](C)NC(=O)[C@H](C(C)C)NC(=O)CNC(=O)[C@H](CC(C)C)NC(=O)[C@@H]2CCCN2C(=O)[C@H](CC(=O)O)NC(=O)[C@H](CCC(=O)O)NC(=O)[C@H](Cc2ccc(O)cc2)NC(=O)[C@H](CC(C)C)NC(=O)[C@H](CO)NC(=O)[C@H](C(C)C)NC(=O)CNC(=O)[C@H]2CCCN2C(=O)[C@H](Cc2ccc(O)cc2)NC(=O)[C@H](C(C)C)NC(=O)CNC1=O` [CP141082, Gly-Val-Ser-Leu-Tyr-Glu-Asp-Pro-Leu-Gly-Val-Ala-Gly-Gly-Met-Gly-Val-Tyr-D-Pro], the IC50 in assay [1] (setting [4]) and in assay [2] was 0.02 µM in each case. Also, the “VNA_H1_NCa_Calu3 pIC50” value in assay [3] (setting [5]) is on record as 4.3.

Take `CSCC[C@@H]1NC(=O)CNC(=O)CNC(=O)[C@H](C)NC(=O)[C@H](C(C)C)NC(=O)CNC(=O)[C@H](CC(C)C)NC(=O)[C@@H]2CCCN2C(=O)[C@H](CC(=O)O)NC(=O)[C@H](CCC(=O)O)NC(=O)[C@H](Cc2ccc(O)cc2)NC(=O)[C@H](CC(C)C)NC(=O)CNC1=O` [CP141088, Leu-Tyr-Glu-Asp-Pro-Leu-Gly-Val-Ala-Gly-Gly-Met-Gly]: the half-inhibitory concentration (IC50) in assay [1] and in assay [2] was 0.251 µM throughout. Moreover, the “VNA_H1_NCa_Calu3 pIC50” value in assay [3] was found to be 4.4.

Take `CSCC[C@@H]1NC(=O)CNC(=O)CNC(=O)[C@H](C)NC(=O)[C@H](C(C)C)NC(=O)CNC(=O)[C@H](CC(C)C)NC(=O)[C@@H]2CCCN2C(=O)[C@H](CC(=O)O)NC(=O)[C@H](CCC(=O)O)NC(=O)[C@H](Cc2ccc(O)cc2)NC(=O)[C@H](CC(C)C)NC(=O)[C@H](CO)NC(=O)[C@H]2CCCN2C(=O)[C@@H]2CCCN2C(=O)[C@H](C(C)C)NC(=O)CNC1=O` [CP141091, D-Pro-Ser-Leu-Tyr-Glu-Asp-Pro-Leu-Gly-Val-Ala-Gly-Gly-Met-Gly-Val-Pro]: the IC50 is 6.31 µM in assay [1] and 5.01 µM in assay [2]. The “VNA_H1_NCa_Calu3 pIC50” value in assay [3] turned out to be 4.2.

On to `CSCC[C@@H]1NC(=O)CNC(=O)CNC(=O)[C@H](C)NC(=O)[C@H](C(C)C)NC(=O)CNC(=O)[C@H](CC(C)C)NC(=O)[C@@H]2CCCN2C(=O)[C@H](CC(=O)O)NC(=O)[C@H](CCC(=O)O)NC(=O)[C@H](Cc2ccc(O)cc2)NC(=O)[C@H](CC(C)C)NC(=O)CNC(=O)CNC1=O` [CP141087, Leu-Tyr-Glu-Asp-Pro-Leu-Gly-Val-Ala-Gly-Gly-Met-Gly-Gly], for which the half-inhibitory concentration (IC50) is 0.631 µM in assay [1] and 0.501 µM in assay [2]. Moreover, the “VNA_H1_NCa_Calu3 pIC50” value in assay [3] is listed as 4.9.

As to `CSCC[C@@H]1NC(=O)CNC(=O)CNC(=O)[C@H](C)NC(=O)[C@H](C(C)C)NC(=O)CNC(=O)[C@H](CC(C)C)NC(=O)[C@@H]2CCCN2C(=O)[C@H](CC(=O)O)NC(=O)[C@H](CCC(=O)O)NC(=O)[C@H](Cc2ccc(O)cc2)NC(=O)[C@@H](NC(=O)CCC(=O)O)CSSC[C@@H](C(N)=O)NC1=O` [CP141070, Suc-Cys-Tyr-Glu-Asp-Pro-Leu-Gly-Val-Ala-Gly-Gly-Met-Cys-NH2], the IC50 in assay [1] was 3.98 µM; in assay [2] it was 6.31 µM. In addition, the “VNA_H1_NCa_Calu3 pIC50” value in assay [3] is given as 4.4.

Regarding `CSCC[C@@H]1NC(=O)CNC(=O)CNC(=O)[C@H](C)NC(=O)[C@H](C(C)C)NC(=O)CNC(=O)[C@H](CC(C)C)NC(=O)[C@@H]2CCCN2C(=O)[C@H](CC(=O)O)NC(=O)[C@H](CCCNC(=N)N)NC(=O)[C@H](Cc2ccc(O)cc2)NC(=O)[C@H](CC(C)C)NC(=O)[C@@H](NC(=O)CCC(=O)O)CSSC[C@@H](C(N)=O)NC(=O)CNC1=O` [CP141076, Suc-Cys-Leu-Tyr-Arg-Asp-Pro-Leu-Gly-Val-Ala-Gly-Gly-Met-Gly-Cys-NH2], the figures for the IC50 in assay [1] (setting [4]) and in assay [2] were 0.126 µM and 0.1 µM, respectively. Moreover, the “VNA_H1_NCa_Calu3 pIC50” value in assay [3] (setting [5]) was found to be 6.0.

The values are drawn from US20200048308A1, “INFLUENZA VIRUS NE[…]” (priority 2016, published 2020).
